According to patent publication US8946275B2, “Treatment of cancer using hypoxia activated prodrugs” (Threshold Pharmaceuticals, Inc., priority 2008, dated 2015):

Experiments:
[1] = Phase 1 clinical trial of TH-302 monotherapy, dose escalation; type: in vivo, human
Description: A Phase 1 clinical trial was conducted with TH-302. The starting dose was 7.5 mg/m^2 IV over 30-60 min administered once weekly for 3 weeks of a 4 week cycle. A modified accelerated titration design was used.

[2] = tested on: orthotopic prostate cancer PC-3 cells; assay: Orthotopic PC-3 prostate cancer model, TH-302 with Taxol; type: in vivo, mice; settings: single agents: Taxol 12 mg/kg; TH-302 30 or 50 mg/kg
Description: TH-302 was tested as monotherapy and in combination with Taxol (paclitaxel) in animals bearing highly invasive and metastatic orthotopic prostate cancer PC-3 cells. Animals were randomized into 6 groups of 8 mice each and then treated either with vehicle; Taxol (12 mg/kg, IV, twice a week for 4 consecutive weeks); TH-302 (30 or 50 mg/kg, IP, once a day for 5 days a week for 2 consecutive weeks); or Taxol in combination with TH-302 (using the same single agent regimens).

With `Cn1c(COP(=O)(NCCBr)NCCBr)cnc1[N+](=O)[O-]` [TH-302, (2-bromoethyl)({[(2-bromoethyl)amino][(2-nitro-3-methylimidazol-4-yl)methoxy]phosphoryl})amine] the “Dose limiting toxicity (DLT)” value ([1]; 575 mg/m^2 weekly x3 of 4 week cycle) was “five of the six patients did not exhibit a DLT”, the “Dose limiting toxicity (DLT)” value ([1]; 670 mg/m^2 weekly x3 of 4 week cycle) was “Two of five patients” and the Dose limiting toxicity ([1]; 940 mg/m^2 once every three weeks) was “two of six subjects have had a dose limiting toxicity”. The “Patients with stable disease” value ([1]; Phase 1 monotherapy, all doses) was 16 patients, the Dose limiting toxicities ([1]; dose escalation study, monotherapy) was “mucositis with one grade 3 event involving the oral mucosa and one grade 3 event involving the gastrointestinal mucosa” and the Hematologic toxicity ([1]; monotherapy) was “mild and limited”. The “Skin and mucosal toxicity” value ([1]; monotherapy) was “skin and mucosal toxicity was common at doses above 240 mg/m^2”, the MTD ([1]; once every three week dosing) was 670 mg/m^2 and the MTD ([1]; once per week for three weeks of a four week cycle) was 575 mg/m^2. The “Primary tumor growth during the treatment period” value [2] was “significantly inhibited primary tumor growth”.
